In patent US20080305186A1, “Method and Composition for the Treatment of Cardiac Hypertrophy” (BOARD OF REGENTS, THE UNIVERSITY OF TEXAS SYSTEM, priority 2007, published 2008):

System: cardiac gene expression
Experiment: Microarray analysis of cardiac gene expression (GeneChip Mouse Genome 430 2.0)
Assay type: in vivo, mice
Protocol: Microarray Sample Preparation and Analysis. Animal hearts were rapidly removed, and the atria and right ventricles were cut and immediately plunged into TRIzol Reagent (Life Technologies). Total RNA was isolated following the manufacturer's instructions, purified by phenol-chloroform extraction and then ethanol precipitation, and 20 μg further processed for microarray analysis. Briefly, cDNA synthesis, in vitro transcription, and labeling and fragmentation to produce the oligonucleotide probes were performed as instructed by the GeneChip manufacturer (Affymetrix). The probes were first hybridized to a test array (Affymetrix) and then to the GeneChip Mouse Genome 430 2.0 Array, using the GeneChip Hybridization Oven 640. The chips were washed in a GeneChip Fluidics Station 450 (Affymetrix), and the results were visualized with a GeneChip G7 scanner (Affymetrix). RMA normalization, pairwise comparisons, Student's t test and Benjamini and Hochberg correction were subsequently performed using GeneSifter (VizX Labs, Seattle, Wash.) and Spotfire DecisionSite 8.3 (Spotfire, Inc., Somerville, Mass.).
Effects on Gene Expression Profile. […] One mouse heart was used for each array, and was performed in triplicate, generating a total of 12 arrays. GeneSifter was used to perform RMA normalization, pairwise comparisons of averaged signal intensity values, and Student's t-test with Benjamini and Hochberg correction, and Spotfire was used to perform pairwise comparisons. […] Additionally, genes that were altered between any two N or cardiac hypertrophy samples were removed, as these alterations most likely represented normal variations between mice.

[1] = CH vs drug-treated isoproterenol mice

C[C@H]1c2cccc(O)c2C(=O)C2=C(O)[C@]3(O)C(=O)C(C(N)=O)=C(O)[C@@H](N(C)C)[C@@H]3[C@@H](O)[C@@H]21 [doxycycline]
Number of Altered Genes, Average FC (1.5-fold) [1]: 2929 | Number of Altered Genes, Average FC (2-fold) [1]: 417 | Number of Altered Genes, Minus disease variability [1]: 578 | Number of Altered Genes, Minus natural variability [1]: 994 | Number of Altered Genes, Reproducible [1]: 497 | Number of Altered Genes, Student's t test [1]: 2274 | Number of Altered Genes, Correction (CH vs drug-treated isoproterenol mice, Benjamini and Hochberg): 2034 | Number of Altered Genes, Disease-specific (CH vs drug-treated isoproterenol mice, of 779 genes altered N vs CH, altered in the reverse direction): 327 | FC EST (GenBank AA419994, vs mice given only isoproterenol): −1.7 | FC Metallothionein 2 (Mt2) (GenBank AA796766, vs mice given only isoproterenol): −5.5 | FC Prostaglandin D synthetase (Ptgds) (GenBank AB006361, vs mice given only isoproterenol): −2.0 | FC Potassium channel, subfamily K, member 3 (Kcnk3) (GenBank AF065162, vs mice given only isoproterenol): 1.7 | FC Small inducible cytokine A9 (Scya9) (Ccl9) (Mip-1[…]) (GenBank AF128196, vs mice given only isoproterenol): −2.0 | FC Group V phospholipase A2 (Pla2g5) (GenBank AF162713, vs mice given only isoproterenol): 2.2 | FC GABA-A receptor-associated protein-like protein 1 (Gabarapl1) (GenBank AF180518, 1st listing, vs mice given only isoproterenol): −3.6 | FC GABA-A receptor-associated protein-like protein 1 (Gabarapl1) (GenBank AF180518, 2nd listing, vs mice given only isoproterenol): −3.1 | FC Toll-like receptor 4 (TLR4) (GenBank AF185285, heart, drug + isoproterenol vs isoproterenol-only mice, CH vs normal FC 2.2): −1.9 fold | FC TSC22-related inducible leucine zipper 3c (Tilz3c) (Dsip1) (GenBank AF201289, heart, drug + isoproterenol vs isoproterenol-only mice, CH vs normal FC 2.7): −2.3 fold | FC Homeodomain interacting protein kinase 2 (Hipk2) (GenBank AF208292, vs mice given only isoproterenol): 1.9 | FC Cytochrome b-5 reductase (Cyb5r3) (GenBank AF332060, vs mice given only isoproterenol): 1.7 | FC Transcription factor myocardin (Myocd) (GenBank AF384055, heart, drug + isoproterenol vs isoproterenol-only mice, CH vs normal FC −1.6): 4.0 fold | FC F-box-WD40 repeat protein 6 (Fbxw6) (GenBank AF391192, vs mice given only isoproterenol): 2.9 | FC F-box only protein 32 (Fbxo32) (GenBank AF441120, vs mice given only isoproterenol): −3.3 | FC FK506 binding protein 5 (51 kDa) (Fkbp5) (GenBank AI098139, vs mice given only isoproterenol): −4.1 | FC Myosin binding protein C, fast-type (Mybpc2) (GenBank AI326984, vs mice given only isoproterenol): −3.2 | FC Heparan sulfate 2-O-sulfotransferase 1 (Hs2st1) (GenBank AI451467, vs mice given only isoproterenol): 2.2 | FC EST (GenBank AI467657, 1st listing, vs mice given only isoproterenol): −1.9 | FC EST (GenBank AI467657, 2nd listing, vs mice given only isoproterenol): −1.6 | FC EST (GenBank AI480750, vs mice given only isoproterenol): 1.7 | FC Interferon activated gene 205 (Ifi205) (GenBank AI481797, vs mice given only isoproterenol): −2.2 | FC Protein tyrosine phosphatase, receptor-type, F interacting protein, binding protein 2 (Ppfibp2) (GenBank AI503166, vs mice given only isoproterenol): −2.0 | FC Dipeptidase 1 (Dpep1) (GenBank AI647687, vs mice given only isoproterenol): −2.0 | FC Homocysteine-inducible, endoplasmic reticulum stress-inducible, ubiquitin-like domain member 1 (Herpud1) (GenBank AI835088, vs mice given only isoproterenol): −3.0 | FC Sulfotransferase family 1A, phenol-preferring, member 1 (Sult1a1) (GenBank AK002700, vs mice given only isoproterenol): −3.7 | FC GPI-ahored HDL-binding protein 1 (Gpihbp1) (GenBank AK003305, vs mice given only isoproterenol): −1.8 | FC Ets variant gene 5 (Etv5) (GenBank AK003461, vs mice given only isoproterenol): −2.0 | FC Peptidylprolyl isomerase (cyclophilin)-like 1 (Ppil1) (GenBank AK004331, vs mice given only isoproterenol): 1.8 | FC Extra cellular link domain-containing 1 (Xkd1) (GenBank AK004726, vs mice given only isoproterenol): −1.8 | FC SRY-box containing gene 17 (Sox17) (GenBank AK004781, vs mice given only isoproterenol): −1.6 | FC Phospholipase A2 group VII (platelet-activating factor acetylhydrolase, plasma) (Pla2g7) (GenBank AK005158, vs mice given only isoproterenol): −2.2 | FC Methyl-CpG binding domain protein 1 (Mbd1) (GenBank AK007371, 1st listing, vs mice given only isoproterenol): −2.5 | FC Methyl-CpG binding domain protein 1 (Mbd1) (GenBank AK007371, 2nd listing, vs mice given only isoproterenol): −2.0 | FC Homeobox only domain (Hod) (GenBank AK009007, vs mice given only isoproterenol): 1.5 | FC F-box and leucine-rich repeat protein 20 (Fbxl20) (GenBank AK012109, vs mice given only isoproterenol): −2.0 | FC Dual specificity phosphatase 4 (Dusp4) (GenBank AK012530, vs mice given only isoproterenol): −2.4 | FC Hydroxyacylglutathione hydrolase-like (Haghl) (GenBank AK012748, vs mice given only isoproterenol): 2.0 | FC Leucine-rich repeat-containing 52 (Lrrc52) (GenBank AK015134, vs mice given only isoproterenol): −2.6 | FC Sphingosine kinase 2 (Sphk2) (GenBank AK016616, vs mice given only isoproterenol): 1.5 | FC DNA-damage-inducible transcript 4 (Ddit4) (GenBank AK017926, vs mice given only isoproterenol): −5.6 | FC Kelch-like 24 (Khl24) (GenBank AK018314, vs mice given only isoproterenol): −2.1 | FC Transforming, acidic coiled-coil containing protein (Tacc1) (GenBank AK019530, heart, drug + isoproterenol vs isoproterenol-only mice, CH vs normal FC −2.1): 3.2 fold | FC Protein arginine N-methyltransferase 1 (Prmt1) (GenBank AK020120, vs mice given only isoproterenol): 1.8 | FC Hydroxyacylglutathione hydrolase-like (Haghl) (GenBank AK021220, vs mice given only isoproterenol): 1.8 | FC Phosphodiesterase 7A (Pde7a) (GenBank AU015378, vs mice given only isoproterenol): −2.2 | FC p53 regulated PA26 nuclear protein (Sestrin 1) (Sesn1) (GenBank AV016566, vs mice given only isoproterenol): −2.3 | FC EST (GenBank AV032877, vs mice given only isoproterenol): −1.5 | FC Ectonucleoside triphosphate diphosphohydrolase 1 (Entpd1) (GenBank AV117919, vs mice given only isoproterenol): −2.1 | FC F-box and leucine-rich repeat protein 20 (Fbxl20) (GenBank AV120094, vs mice given only isoproterenol): −1.5 | FC Transthyretin (Ttr) (GenBank AV152953, heart, drug + isoproterenol vs isoproterenol-only mice, CH vs normal FC 4.4): −2.8 fold | FC Solute carrier family 10 (sodium/bile acid cotransporter family), member 6 (Slc10a6) (GenBank AV244484, vs mice given only isoproterenol): −5.3
